Tests used:
[1] = Absorption and fluorescence emission spectra (photophysical properties); assay type: physicochemical
Source text: Semisquaraine of the general formula 1 in which a quinaldine moiety is linked to the squaric acid through methylene bridge have absorption around 480 nm with high molar extinction coefficient (4.0×10^4 M^−1 cm^−1) which depends on the substitution on the quanaldine unit. […] The absorption and fluorescence emission spectra of representative semisquaraine of the general formula 1 where X=OH, Y=H, Z=H, R^2=CH3 are shown in FIG. 1.
Similar to the semisquaraines the absorption spectra of these dyes were also dependent on the substitution on the quinaldine moiety. […] The presence of electron withdrawing groups in the quinaldine ring shifts the absorption maxima towards the blue region. […] The absorption and fluorescence emission spectra of representative symmetrical squaraine dye of the general formula 2, where X=I, Y=H, R^2=CH3 are shown in FIG. 2.
The absorption and fluorescence emission spectra of representative unsymmetrical squaraine dyes of the general formula 3, where X=C6H11O6, Y=H, Q=I, Z=H, R^2=CH3, are shown in FIG. 4.

[2] = test system: L1210 mouse lymphoma cells; test: Photocytotoxicity of squaraine dyes with and without visible light (cell survival / proliferation); assay type: cell-based; settings: for toxicity in the dark: absence of light; for photocytotoxicity (% of cell survival with increasing concentration of dye): under illumination (visible light, 1000 W halogen lamp), on ice
Experimental: FIG. 5: Photocytotoxicity of the squaraine dyes of general formula 2, where X=I, Y=H, R^2=CH3, and general formula 3, where X=OH, Y=H, Q=I, Z=H, R^2=CH3 in L1210 mouse lymphoma cells. Data gives the number of cell (% of controls) counted after 48 h after the treatment for 22.5 min at 0° C. with various concentrations of the squaraine dyes under dark and under irradiation. Data points represent the mean of three independent experiments (±SD).
FIG. 6: Photocytotoxicity of the sugar linked and cholesterol-squaraine dyes of general formula 3, where X=C6H11O6, Y=H, Q=I, Z=H, R^2=CH3 and where X=C27H43O3, Y=H, Q=I, Z=H, R^2=CH3 L1210 mouse lymphoma cells. Data gives the number of cell (% of controls) counted after 48 h after the treatment for 22.5 min at 0° C. with various concentrations of the squaraine derivatives under dark and under irradiation. Data points represent the mean of three independent experiments (±SD).
In order to analyze the cytotoxicity of the squaraine dyes of the general formula 2 wherein X=I, Y=H, R^2=CH3 and 3 wherein X=OH, Y=H, Q=I, Z=H, R^2=CH3, with and without visible light, the cloning efficiencies of L1210 mouse lymphoma cells exposed to various concentrations of the dyes were determined. The light exposure was carried out from a 1000 W halogen lamp at a distance of 33 cm in Ca^2+ and Mg^2+ free PBS (140 mM NaCl, 3 mM KCl, 8 mM […], pH 7.4) on ice (10^6 cells/mL). Illumination for 10 min corresponds to 225 kJ/m^2 between 400 and 800 nm. The cells were pelleted by centrifugation and resuspended in PBSG three times. The cells were resuspended at 3×10^4 cells/mL in fresh medium at 37° C. and the numbers of cells were counted repeatedly for 60 h. From the exponential part of the growth curves (between 24 and 60 h) the number of proliferating cells at the time of resuspension was calculated by extrapolation. Cell survival was defined as the ratio between proliferating and resuspended cells. Results obtained with representative quinaldine based squaraine dyes of the general formula 2 wherein X=I, Y=H, R^2=CH3 and 3 wherein X=OH, Y=H, Q=I, Z=H, are shown in FIG. 5.
The cytotoxicity induced by squaraine dyes of the general formula 3 wherein X=C6H11O6, Y=H, Q=I, Z=H, R^2=CH3 and X=C27H43O3, Y=H, Q=I, Z=H, R^2=CH3 in mouse lymphoma cells L1210 with and without visible light, was carried out as explained in EXAMPLE 8. Results obtained with representative quinaldine based squaraine dyes of the general formula 3 wherein X=C6H11O6, Y=H, Q=I, Z=H, R^2=CH3 and X=C27H43O3, Y=H, Q=I, Z=H, R^2=CH3 are shown in FIG. 6.

[3] = test system: mammalian AS52 cells; test: Cytotoxicity in the presence and absence of light; assay type: cell-based
Source text: In the present invention, we have investigated the cytotoxicity of these dyes in mammalian AS52 cells both in the presence and absence of light.

absorption maxima ([1]; in methanol) | SMILES | toxicity in the dark [2] | photocytotoxicity (% of cell survival with increasing concentration of dye) [2] | also measured
 | CN1/C(=C/C2=C([O-])C(=C\c3ccc4cc(I)ccc4[n+]3C)/C2=O)C=Cc2cc(I)ccc21 | less toxic in the dark | dose dependent photocytotoxicity | absorption maxima ([1]; in DMSO): around 750 nm; emission maxima ([1]; in dimethyl sulfoxide (DMSO)): around 772 nm
 | CN1/C(=C/C2=C([O-])C(=C\c3ccc4cc(O[C@@H]5O[C@H](CO)[C@@H](O)[C@H](O)[C@H]5O)ccc4[n+]3C)/C2=O)C=Cc2cc(I)ccc21 | very less toxicity in the absence of light | dose dependent photocytotoxicity | cytotoxicity compared with diiodo squaraine dye of general formula 2 (X=I) [3]: more cytotoxic; cytotoxicity compared with hydroxyl-substituted squaraine dye of general formula 3 (X=OH) [3]: significantly high
 | CN1/C(=C/C2=C([O-])C(=C\c3ccc4cc(O)ccc4[n+]3C)/C2=O)C=Cc2cc(I)ccc21 | less toxic in the dark | dose dependent photocytotoxicity | 
478 nm | CCCCOc1c(C=C2C=Cc3cc(OCC)ccc3N2C)c(=O)c1=O |  |  | 
477 nm | CCCCOc1c(C=C2C=Cc3cc(O)ccc3N2C)c(=O)c1=O |  |  | 
